row,melting point,SMILES
1,305 to 307 °C,"C#CCN(c1ccc(C(=O)O)cc1)C1CCc2cc3nc(C)[nH]c(=O)c3cc21 (racemic) [Example 1, 4{N-[(6RS)-2-Methyl-4-oxo-3,4,7,8-tetrahydro-6H-cyclopenta[g]quinazolin-6-yl]-N-(prop-2-ynyl)amino}benzoic acid]"
2,> 165 °C (dec.),"C#CCN(c1ccc(C(=O)N[C@@H](CCC(=O)N(C)[C@@H](CCC(=O)O)C(=O)O)C(=O)O)cc1)C1CCc2cc3nc(CO)[nH]c(=O)c3cc21 (mixture of isomers) [Example 5, N-{N-{4-[N-((6RS)-2-hydroxymethyl-4-oxo-3,4,7,8-tetrahydro-6H-cyclopenta[g]quinazolin-6yl)-N-(prop-2-ynyl)amino]-benzoyl}-L-γ-glutamyl}-N-methyl-L-glutamic acid]"
3,150 to 155 °C,"C#CCN(c1ccc(C(=O)N[C@@H](CCC(=O)N[C@H](CCC(=O)O)C(=O)O)C(=O)O)cc1)C1CCc2cc3nc(COC)[nH]c(=O)c3cc21 (mixture of isomers) [Example 2, N-{N-{4-[N-((6RS)-2-Methoxymethyl4oxo-3,4,7,8-tetrahydro-6H-cyclopent[g]quinazolin-6-yl)-N-(prop-2-ynyl)amino]-benzoyl}-L-γ-glutamyl}-D-glutamic acid]"
4,175 °C (dec.),"C#CCN(c1ccc(C(=O)N[C@@H](CCC(=O)N[C@H](CCC(=O)O)C(=O)O)C(=O)O)c(F)c1)C1CCc2cc3nc(C)[nH]c(=O)c3cc21 (mixture of isomers) [Example 4, N-{N-{4[N-((6RS)-2-methyl-4-oxo-3,4,7,8-tetra-hydro-6H-cyclopental[g]quinazolin-6-yl)-N-(prop2-ynyl)amino]-2-fluoro-benzoyl}-L-γ-glutamyl}-D-glutamic acid]"

# Reference: patent US7250511B2, “Process for the preparation of cyclopenta[g]quinazoline derivatives” (BTG International Limited, priority 2001, dated 2007)
